According to ChEMBL document CHEMBL5252561, “Evaluation of darunavir-derived HIV-1 protease inhibitors incorporating P2' amide-derivatives: Synthesis, biological evaluation and structural studies” (Bioorg Med Chem Lett, 2023):

Legend:
[1] = tested on: Human immunodeficiency virus; assay: Antiviral activity against HIV LAI infected in human MT-2 cells assessed as inhibition of viral growth; assay type: functional, organism-based; conditions: Human immunodeficiency virus 1, LAI, MT2
[2] = molecular target: Human immunodeficiency virus type 1 protease (Human immunodeficiency virus 1, UniProt Q72874); assay: Inhibition of HIV-1 protease using Abz-NF-6 as substrate assessed as inhibition constant measured every 2 mins for 20 mins by fluorescence based […] analysis
[3] = tested on: Human immunodeficiency virus; assay: Potency index, ratio of test compound IC50 to darunavir IC50 for antiviral activity against HIV LAI infected in human MT-2 cells assessed as inhibition of viral growth; assay type: functional, MT2

Compound | Ki [2] [nM] | IC50 [1] [nM] | Ratio IC50 [3]
CC(C)CN(C[C@@H](O)[C@H](Cc1ccccc1)NC(=O)O[C@H]1CO[C@H]2OCC[C@H]21)S(=O)(=O)c1ccc(N)cc1 |  | 1.6 | 
CC(C)CN(C[C@@H](O)[C@H](Cc1ccccc1)NC(=O)O[C@H]1CO[C@H]2OCC[C@H]21)S(=O)(=O)c1ccc(NC(=O)CN[C@H](C)c2ccccc2)cc1 | 0.0053 | 39 | 
CC(C)CN(C[C@@H](O)[C@H](Cc1ccccc1)NC(=O)O[C@H]1CO[C@H]2OCC[C@H]21)S(=O)(=O)c1ccc(NC(=O)[C@@H](NC(=O)OC(C)(C)C)C(C)C)cc1 | 178 | 540 | 
CC(C)CN(C[C@@H](O)[C@H](Cc1ccccc1)NC(=O)O[C@H]1CO[C@H]2OCC[C@H]21)S(=O)(=O)c1ccc(C(N)=O)cc1 |  | 93 | 
CC(C)CN(C[C@@H](O)[C@H](Cc1ccccc1)NC(=O)O[C@H]1CO[C@H]2OCC[C@H]21)S(=O)(=O)c1ccc(C(=O)O)cc1 |  | > 1000 | 
CC(C)CN(C[C@@H](O)[C@H](Cc1ccccc1)NC(=O)O[C@H]1CO[C@H]2OCC[C@H]21)S(=O)(=O)c1ccc(NC(=O)[C@H](NC(=O)OC(C)(C)C)C(C)C)cc1 | 337 | 430 | 
CCNCC(=O)Nc1ccc(S(=O)(=O)N(CC(C)C)C[C@@H](O)[C@H](Cc2ccccc2)NC(=O)O[C@H]2CO[C@H]3OCC[C@H]32)cc1 | 0.0091 | 280 | 
CC(=O)Nc1ccc(S(=O)(=O)N(CC(C)C)C[C@@H](O)[C@H](Cc2ccccc2)NC(=O)O[C@H]2CO[C@H]3OCC[C@H]32)cc1 | 0.0006 | 29 | 10

Further lines, with some results ahead:

Ki [2] [nM] | Compound | IC50 [1] [nM] | Ratio IC50 [3]
0.0015 | CC(C)CN(C[C@@H](O)[C@H](Cc1ccccc1)NC(=O)O[C@H]1CO[C@H]2OCC[C@H]21)S(=O)(=O)c1ccc(NC(=O)CN(C)C)cc1 | > 1000 | 
0.302 | CCN(CC)CC(=O)Nc1ccc(S(=O)(=O)N(CC(C)C)C[C@@H](O)[C@H](Cc2ccccc2)NC(=O)O[C@H]2CO[C@H]3OCC[C@H]32)cc1 | > 1000 | 
310 | CC(C)CN(C[C@@H](O)[C@H](Cc1ccccc1)NC(=O)O[C@H]1CO[C@H]2OCC[C@H]21)S(=O)(=O)c1ccc(NC(=O)CNC(=O)OC(C)(C)C)cc1 |  | 
0.445 | CC(C)CN(C[C@@H](O)[C@H](Cc1ccccc1)NC(=O)O[C@H]1CO[C@H]2OCC[C@H]21)S(=O)(=O)c1ccc(NC(=O)[C@@H](N)C(C)C)cc1 | 25 | 
0.0044 | CC(C)CN(C[C@@H](O)[C@H](Cc1ccccc1)NC(=O)O[C@H]1CO[C@H]2OCC[C@H]21)S(=O)(=O)c1ccc(NC(=O)CCl)cc1 | 32 | 
0.0921 | CC(C)CN(C[C@@H](O)[C@H](Cc1ccccc1)NC(=O)O[C@H]1CO[C@H]2OCC[C@H]21)S(=O)(=O)c1ccc(NC(=O)CN)cc1 |  | 
0.388 | CC(C)CN(C[C@@H](O)[C@H](Cc1ccccc1)NC(=O)O[C@H]1CO[C@H]2OCC[C@H]21)S(=O)(=O)c1ccc(NC(=O)CNC(C)C)cc1 | 31 | 
